Laboratory results: ChEMBL document CHEMBL1201862, “PubChem BioAssay data set” (2004)
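Compound exposure: 48 hours, 5 concentrations, 96-well plates. GI50 is the concentration that inhibits growth by half.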 Calls of active or inactive are those of the source. Cut-off read from the data, not from the text of the source: active = GI50 up to about 1.1 µM and inactive = higher.

Tests used:
Assay in all cases: NCI-60 cell line screen, 48 h
SR = system: SR
LOX IMVI = system: LOX IMVI
TK-10 = system: TK-10
SNB-75 = system: SNB-75
RPMI-8226 = system: RPMI-8226
NCI/ADR-RES = system: NCI/ADR-RES
UACC-257 = system: UACC-257
UO-31 = system: UO-31
OVCAR-4 = system: OVCAR-4
COLO 205 = system: COLO 205
BT-549 = system: BT-549
NCI-H226 = system: NCI-H226
A498 = system: A498
MDA-MB-435 = system: MDA-MB-435
OVCAR-5 = system: OVCAR-5
MDA-MB-231 = system: MDA-MB-231
OVCAR-8 = system: OVCAR-8
CCRF-CEM = system: CCRF-CEM
HOP-62 = system: HOP-62

Measured: GI50

O=[N+]([O-])/C(Cl)=C(/C(Cl)=C(Cl)Cl)N1CCOCC1
inactive: SR 2.21 µM | LOX IMVI 3.66 µM | TK-10 3.49 µM | SNB-75 4.03 µM | RPMI-8226 2.56 µM | NCI/ADR-RES 3.29 µM | UACC-257 2.99 µM | UO-31 6.1 µM | OVCAR-4 5.51 µM | COLO 205 2.54 µM | BT-549 2.46 µM | NCI-H226 16.4 µM | A498 3.04 µM | MDA-MB-435 2.28 µM | OVCAR-5 7.93 µM | MDA-MB-231 3.86 µM | OVCAR-8 2.56 µM | CCRF-CEM 1.8 µM

O=C(N/N=C/c1ccc(Cl)cc1)c1cc(I)cc(I)c1O
inactive: SR 76.6 µM | LOX IMVI > 100 µM | TK-10 > 100 µM | SNB-75 94.2 µM | RPMI-8226 > 100 µM | NCI/ADR-RES > 100 µM | UACC-257 > 100 µM | UO-31 > 100 µM | OVCAR-4 > 100 µM | COLO 205 > 100 µM | BT-549 > 100 µM | NCI-H226 > 100 µM | A498 33.3 µM | MDA-MB-435 > 100 µM | HOP-62 > 100 µM | OVCAR-5 > 100 µM | MDA-MB-231 > 100 µM | OVCAR-8 > 100 µM | CCRF-CEM > 100 µM

Oc1cccc(Nc2cc(O)nc(O)n2)c1
inactive: SR > 100 µM | LOX IMVI > 100 µM | TK-10 > 100 µM | SNB-75 > 100 µM | RPMI-8226 > 100 µM | NCI/ADR-RES > 100 µM | UACC-257 > 100 µM | UO-31 > 100 µM | OVCAR-4 > 100 µM | COLO 205 > 100 µM | BT-549 > 100 µM | NCI-H226 > 100 µM | A498 > 100 µM | MDA-MB-435 > 100 µM | HOP-62 > 100 µM | OVCAR-5 > 100 µM | MDA-MB-231 > 100 µM | OVCAR-8 > 100 µM | CCRF-CEM > 100 µM

O=C1c2ccccc2-n2c1nc1cc(Cl)ccc1c2=O
inactive: SR 6.62 µM | LOX IMVI 14 µM | TK-10 > 100 µM | SNB-75 85.9 µM | RPMI-8226 5.04 µM | NCI/ADR-RES > 100 µM | UACC-257 9.68 µM | UO-31 > 100 µM | OVCAR-4 27.7 µM | COLO 205 > 100 µM | BT-549 > 100 µM | NCI-H226 > 100 µM | A498 > 100 µM | MDA-MB-435 2.02 µM | HOP-62 81.7 µM | OVCAR-5 > 100 µM | MDA-MB-231 > 100 µM | OVCAR-8 36.8 µM | CCRF-CEM 3.84 µM

COC(=O)/C(C#N)=C(\Nc1ccccc1)N1CCCCC1
inactive: SR > 100 µM | LOX IMVI > 100 µM | TK-10 > 100 µM | SNB-75 > 100 µM | RPMI-8226 > 100 µM | NCI/ADR-RES > 100 µM | UACC-257 > 100 µM | UO-31 > 100 µM | OVCAR-4 > 100 µM | COLO 205 > 100 µM | BT-549 > 100 µM | NCI-H226 > 100 µM | A498 > 100 µM | MDA-MB-435 > 100 µM | HOP-62 > 100 µM | OVCAR-5 > 100 µM | MDA-MB-231 > 100 µM | OVCAR-8 > 100 µM

O=c1cc(-c2ccc(O)c(O)c2)oc2cc(O[C@H]3O[C@H](CO)[C@@H](O)[C@H](O)[C@H]3O)cc(O)c12
inactive: SR 5.69 µM | LOX IMVI 35.6 µM | TK-10 > 100 µM | SNB-75 20.2 µM | RPMI-8226 73.5 µM | NCI/ADR-RES > 100 µM | UACC-257 > 100 µM | UO-31 11.2 µM | OVCAR-4 > 100 µM | COLO 205 > 100 µM | BT-549 > 100 µM | NCI-H226 > 100 µM | A498 78.2 µM | MDA-MB-435 > 100 µM | HOP-62 > 100 µM | OVCAR-5 > 100 µM | MDA-MB-231 > 100 µM | OVCAR-8 > 100 µM

O=S(=O)(O)c1ccc(O)c2ncc(Cl)cc12
inactive: SR > 100 µM | LOX IMVI > 100 µM | SNB-75 > 100 µM | RPMI-8226 51.1 µM | NCI/ADR-RES > 100 µM | UACC-257 > 100 µM | UO-31 > 100 µM | OVCAR-4 > 100 µM | COLO 205 > 100 µM | BT-549 > 100 µM | NCI-H226 > 100 µM | A498 > 100 µM | MDA-MB-435 > 100 µM | HOP-62 > 100 µM | OVCAR-5 > 100 µM | MDA-MB-231 > 100 µM | OVCAR-8 > 100 µM | CCRF-CEM > 100 µM

Cc1nc(-c2ccc([N+](=O)[O-])cc2)cn2c1nc1ccccc12
inactive: SR > 100 µM | LOX IMVI > 100 µM | TK-10 97.5 µM | SNB-75 24.6 µM | RPMI-8226 > 100 µM | NCI/ADR-RES > 100 µM | UACC-257 > 100 µM | UO-31 > 100 µM | OVCAR-4 > 100 µM | COLO 205 > 100 µM | BT-549 > 100 µM | NCI-H226 > 100 µM | A498 > 100 µM | MDA-MB-435 > 100 µM | HOP-62 36.5 µM | OVCAR-5 > 100 µM | MDA-MB-231 > 100 µM | OVCAR-8 > 100 µM | CCRF-CEM > 100 µM

COc1ccc(NC(=S)Nc2cc(C)ccn2)cc1
inactive: SR > 100 µM | LOX IMVI > 100 µM | TK-10 > 100 µM | SNB-75 > 100 µM | RPMI-8226 > 100 µM | NCI/ADR-RES 28.6 µM | UACC-257 > 100 µM | UO-31 > 100 µM | OVCAR-4 > 100 µM | COLO 205 > 100 µM | BT-549 > 100 µM | NCI-H226 > 100 µM | A498 > 100 µM | MDA-MB-435 > 100 µM | HOP-62 > 100 µM | MDA-MB-231 > 100 µM | OVCAR-8 > 100 µM | CCRF-CEM > 100 µM

CC1=NN(c2ccccc2Cl)C2(C1)C(Cl)C(=O)N2c1nc2ccccc2s1 (configuration not stated)
inactive: SR 21.1 µM | LOX IMVI 15.5 µM | TK-10 > 100 µM | SNB-75 20.8 µM | RPMI-8226 21.7 µM | NCI/ADR-RES 65 µM | UACC-257 > 100 µM | UO-31 61.8 µM | OVCAR-4 > 100 µM | COLO 205 61.1 µM | BT-549 54.6 µM | NCI-H226 50.5 µM | A498 > 100 µM | MDA-MB-435 41.8 µM | HOP-62 29.2 µM | OVCAR-5 > 100 µM | MDA-MB-231 46.6 µM | OVCAR-8 38.1 µM

CSc1ncc2c(n1)-c1ccccc1OC2N1CCCC1 (configuration not stated)
inactive: SR > 100 µM | LOX IMVI > 100 µM | TK-10 44.1 µM | SNB-75 41.7 µM | RPMI-8226 50.9 µM | NCI/ADR-RES 93.8 µM | UACC-257 > 100 µM | UO-31 42.4 µM | OVCAR-4 21 µM | COLO 205 > 100 µM | BT-549 75 µM | NCI-H226 31 µM | A498 11.8 µM | MDA-MB-435 > 100 µM | OVCAR-5 > 100 µM | MDA-MB-231 > 100 µM | OVCAR-8 > 100 µM | CCRF-CEM 58.5 µM
